Experimental data from US20180246095A1, “COMPOSITIONS AND METHODS FOR DIAGNOSING AND TREATING LYME DISEASE” (priority 2015, published 2018).

Tested on: B. burgdorferi B31
Experiment: RNA-Seq gene expression profile of B. burgdorferi persisters that survived antibiotic treatment, compared with drug free control
Assay type: cell-based, Borrelia burgdorferi
Experimental: RNA Sequencing (RNA-Seq) was performed to determine the gene expression profile of B. burgdorferi persisters that survived antibiotic treatment using next generation sequencing to shed light on the mechanisms of B. burgdorferi persistence. B. burgdorferi B31 cultures were grown for 5 days to 1×10^7 spirochetes/ml in BSK-H medium followed by treatment with 50 μg/ml doxycycline or 50 μg/ml amoxicillin for 6 days. Triplicate biological samples were used for each group. The total RNA was extracted and ribosomal RNA was removed prior to preparation of cDNA libraries for Illumina sequencing. […] The RNA-Seq data was analyzed by BLAST analysis and mapped to KEGG pathways.

CC1(C)S[C@@H]2[C@H](NC(=O)[C@H](N)c3ccc(O)cc3)C(=O)N2[C@H]1C(=O)O [Amo]
Expression predicted RNA antisense: BB_0034: 64256
Expression predicted RNA antisense: BB_0147: 71642
Expression predicted RNA antisense: BB_0269: 39823
Expression predicted RNA antisense: BB_0465: 29768
Expression predicted RNA antisense: BB_0559: 39487
Expression predicted RNA antisense: BB_0631: 35398
Expression predicted RNA antisense: BB_A59: 70553
Expression predicted RNA antisense: BB_B22: 44966
Expression predicted RNA antisense: fusA: 45574
Expression predicted RNA antisense: lp6.6: 140114
Expression predicted RNA antisense: napA: 19231
Expression predicted RNA antisense: ospA ospB: 102443
Expression predicted RNA antisense: rpsM: 33897
Expression predicted RNA antisense: tRNA-Gln-1 BB_0786: 25214
Expression 5S_rrlB BB_r03 (5S ribosomal RNA): 0
Expression lp6.6 BB_A62 (6.6 kDa lipoprotein): 115
Expression 23S_rrlA BB_r02 (23S ribosomal RNA): 3005
Expression 23S_rrlB BB_r04 (23S ribosomal RNA): 3039
Expression rpsH BB_0492 (30S ribosomal protein S8): 14
Expression rpsI BB_0338 (30S ribosomal protein S9): 66
Expression rpsQ BB_0487 (30S ribosomal protein S17): 2
Expression rpsU BB_0256 (30S ribosomal protein S21): 34
Expression rplI BB_0112 (50S ribosomal protein L9): 23
Expression rplM BB_0339 (50S ribosomal protein L13): 21
Expression rplQ BB_0503 (50S ribosomal protein L17): 17
Expression rplX BB_0489 (50S ribosomal protein L24): 6
Expression rpmC BB_0486 (50S ribosomal protein L29): 0
Expression rpmE BB_0229 (50S ribosomal protein L31): 52
Expression rpmF BB_0703 (50S ribosomal protein L32): 28
Expression rpmJ BB_0499 (50S ribosomal protein L36): 14
Expression tRNA-Ala-1 BB_t05 (Ala tRNA): 0
Expression BB_t21 (Arg tRNA): 0
Expression tRNA-Asn-1 BB_t11 (Asn tRNA): 26
Expression tRNA-Asp-1 BB_t12 (Asp tRNA): 0
Expression bdrH BB_R27 (BdrH): 15
Expression bdrK BB_M34 (BdrK): 0
Expression bdrR BB_N27 (BdrR protein): 0
Expression erpK BB_M38 (ErpK protein): 0
Expression thyX BB_A76 (FAD-dependent thymidylate synthase): 3
Expression tRNA-Gln-1 BB_t18 (Gln tRNA): 0
Expression BB_t25 (Gly tRNA): 1187
Expression BB_0087 (L-lactate dehydrogenase): 48
Expression tRNA-Leu-4 BB_t17 (Leu tRNA): 15
Expression BB_t23 (Lys tRNA): 0
Expression BB_0262 (M23 peptidase domain-containing protein): 145
Expression BB_t28 (Met tRNA): 0
Expression BB_A64 (P35 antigen): 9453
Expression BB_P32 (PF-32 protein): 15
Expression BB_M33 (PF-49 protein): 0
Expression BB_P33 (PF-49 protein): 0
Expression BB_0559 (PTS system glucose-specific transporter subunit IIA): 177
Expression BB_t30 (Phe tRNA): 0
Expression BB_F03 (RepU): 0
Expression BB_t20 (Ser tRNA): 7
Expression tRNA-Ser-3 BB_t06 (Ser tRNA): 0
Expression smpB BB_0033 (SsrA-binding protein): 176
Expression BB_t33 (Thr tRNA): 11
Expression murB BB_0598 (UDP-N-acetylenolpyruvoylglucosamine reductase): 249
Expression BB_0090 (V-type ATP synthase subunit K): 1
Expression BB_H33 (adenine deaminase): 2
Expression BB_H32 (antigen P35): 5
Expression lnt BB_0237 (apolipoprotein N-acyltransferase): 2060
Expression BB_0582 (carboxypeptidase): 96
Expression cheR BB_0040 (chemotaxis protein methyltransferase): 233
Expression BB_H06 (complement regulator-acquiring surface protein): 10
Expression cdd BB_0618 (cytidine deaminase): 267
Expression flgB BB_0294 (flagellar basal body rod protein FlgB): 5
Expression fliL BB_0279 (flagellar basal body-associated protein FliL): 6
Expression BB_0287 (flagellar protein FlbA): 0
Expression BB_0147 (flagellin): 73
Expression BB_0138 (gene BB_0138, hypothetical protein): 0
Expression BB_0305 (gene BB_0305, hypothetical protein): 0
Expression BB_0321 (gene BB_0321, hypothetical protein): 4
Expression BB_A21 (gene BB_A21, PF-49 protein): 1
Expression BB_E09 (gene BB_E09, protein p23): 0
Expression BB_E16 (gene BB_E16, hypothetical protein): 0
Expression BB_E17 (gene BB_E17, hypothetical protein): 0
Expression BB_E18 (gene BB_E18, hypothetical protein): 0
Expression BB_E19 (gene BB_E19, hypothetical protein): 0
Expression BB_E20 (gene BB_E20, hypothetical protein): 0
Expression BB_E21 (gene BB_E21, hypothetical protein): 0
Expression BB_E22 (gene BB_E22, pyrazinamidase/nicotinamidase PncA): 0
Expression BB_E31 (gene BB_E31, antigen, P35, putative): 0
Expression BB_F01 (gene BB_F01, hypothetical protein): 0
Expression BB_F02 (gene BB_F02, hypothetical protein): 0
Expression BB_F06 (gene BB_F06, hypothetical protein): 0
Expression BB_F08 (gene BB_F08, hypothetical protein): 0
Expression BB_F14 (gene BB_F14, hypothetical protein): 0
Expression BB_F17 (gene BB_F17, putative transmembrane protein): 0
Expression BB_F20 (gene BB_F20, BBF20): 0
Expression BB_F23 (gene BB_F23, PF49): 0
Expression BB_F24 (gene BB_F24, PF32): 0
Expression BB_F25 (gene BB_F25, hypothetical protein): 0
Expression BB_F26 (gene BB_F26, hypothetical protein): 0
Expression BB_F0034 (gene BB_F0034, hypothetical protein): 0
Expression BB_F0039 (gene BB_F0039, hypothetical protein): 0
Expression BB_F0040 (gene BB_F0040, hypothetical protein): 0
Expression BB_F0041 (gene BB_F0041, outer surface protein VlsE1): 0
Expression BB_I01 (gene BB_I01, hypothetical protein): 0
Expression BB_I02 (gene BB_I02, hypothetical protein): 0
Expression BB_I06 (gene BB_I06, MTA/SAH nucleosidase): 0
Expression BB_I12 (gene BB_I12, hypothetical protein): 0
Expression BB_I15 (gene BB_I15, virulence associated lipoprotein): 0
Expression BB_I18 (gene BB_I18, hypothetical protein): 0
Expression BB_I19 (gene BB_I19, hypothetical protein): 0
Expression BB_I20 (gene BB_I20, hypothetical protein): 0
Expression BB_I21 (gene BB_I21, PF-32 protein): 0
Expression BB_I22 (gene BB_I22, PF-49 protein): 0
Expression BB_I26 (gene BB_I26, multidrug-efflux transporter): 0
Expression BB_I29 (gene BB_I29, virulence associated lipoprotein): 0
Expression BB_I34 (gene BB_I34, virulence associated lipoprotein): 0
Expression BB_I36 (gene BB_I36, antigen P35): 0
Expression BB_I38 (gene BB_I38, surface antigen): 0
Expression BB_I41 (gene BB_I41, hypothetical protein): 0
Expression BB_I42 (gene BB_I42, outer membrane protein): 0
Expression BB_J42 (gene BB_J42, hypothetical protein): 0
Expression BB_J0058 (gene BB_J0058, hypothetical protein): 0
Expression BB_K01 (gene BB_K01, lipoprotein): 0
Expression BB_K07 (gene BB_K07, lipoprotein): 0
Expression BB_K09 (gene BB_K09, hypothetical protein): 0
Expression BB_K13 (gene BB_K13, hypothetical protein): 0
Expression BB_K15 (gene BB_K15, antigen P35): 0
Expression BB_K17 (gene BB_K17, adenine deaminase): 0
Expression BB_K19 (gene BB_K19, lipoprotein): 0
Expression BB_K21 (gene BB_K21, PF-32 protein): 0
Expression BB_K22 (gene BB_K22, hypothetical protein): 0
Expression BB_K23 (gene BB_K23, hypothetical protein): 0
Expression BB_K24 (gene BB_K24, PF-49 protein): 0
Expression BB_K32 (gene BB_K32, fibronectin-binding protein): 0
Expression BB_K33 (gene BB_K33, hypothetical protein): 0
Expression BB_K34 (gene BB_K34, hypothetical protein): 0
Expression BB_K35 (gene BB_K35, hypothetical protein): 0
Expression BB_K40 (gene BB_K40, hypothetical protein): 0
Expression BB_K41 (gene BB_K41, hypothetical protein): 0
Expression BB_K42 (gene BB_K42, hypothetical protein): 0
Expression BB_K45 (gene BB_K45, immunogenic protein P37): 0
Expression BB_K47 (gene BB_K47, hypothetical protein): 0
Expression BB_K48 (gene BB_K48, immunogenic protein P37): 0
Expression BB_K49 (gene BB_K49, hypothetical protein): 0
Expression BB_K50 (gene BB_K50, immunogenic protein P37): 0
Expression BB_K52 (gene BB_K52, lipoprotein): 0
Expression BB_K53 (gene BB_K53, outer membrane protein): 0
Expression BB_K54 (gene BB_K54, hypothetical protein): 0
Expression BB_K0058 (gene BB_K0058, hypothetical protein): 0
Expression BB_K0059 (gene BB_K0059, hypothetical protein): 0
Expression BB_L15 (gene BB_L15, hypothetical protein): 0
Expression BB_L16 (gene BB_L16, hypothetical protein): 0
Expression BB_L17 (gene BB_L17, hypothetical protein): 0
Expression BB_L18 (gene BB_L18, hypothetical protein): 0
Expression BB_L21 (gene BB_L21, hypothetical protein): 0
Expression BB_L22 (gene BB_L22, hypothetical protein): 0
Expression BB_L29 (gene BB_L29, hypothetical protein): 0
Expression BB_L30 (gene BB_L30, hypothetical protein): 1
Expression BB_L31 (gene BB_L31, hypothetical protein): 0
Expression BB_L32 (gene BB_L32, PF-32 protein): 0
Expression BB_N08 (gene BB_N08, hypothetical protein): 0
Expression BB_N33 (gene BB_N33, PF-49 protein): 1
Expression BB_Q03 (gene BB_Q03, outer membrane protein): 0
Expression BB_Q05 (gene BB_Q05, antigen, P35): 0
Expression BB_Q07 (gene BB_Q07, plasmid partition protein): 0
Expression BB_Q08 (gene BB_Q08, PF-32 protein): 0
Expression BB_Q09 (gene BB_Q09, hypothetical protein): 0
Expression BB_Q40 (gene BB_Q40, PF-32 protein): 0
Expression BB_Q48 (gene BB_Q48, hypothetical protein): 0
Expression BB_Q49 (gene BB_Q49, hypothetical protein): 0
Expression BB_Q67 (gene BB_Q67, adenine specific DNA methyltransferase): 0
Expression BB_Q89 (gene BB_Q89, lipoprotein): 5
Expression BB_T01 (gene BB_T01, hypothetical protein): 0
Expression BB_T02 (gene BB_T02, hypothetical protein): 0
Expression BB_T03 (gene BB_T03, hypothetical protein): 0
Expression BB_T04 (gene BB_T04, hypothetical protein): 0
Expression BB_T06 (gene BB_T06, Sua5/YciO/YrdC/YwlC family protein): 0
Expression BB_T07 (gene BB_T07, outer membrane protein): 0
Expression BB_U01 (gene BB_U01, hypothetical protein): 0
Expression BB_U02 (gene BB_U02, hypothetical protein): 2
Expression BB_U04 (gene BB_U04, protein BBC01): 0
